Measurements taken from the supplement of paper PMC11061612.

Key:
Assay in all cases: Bliss excess, mean over the matrix (fraction); higher = more synergy
[1] = tested on: NCI-H2122 (Lung Adenocarcinoma)
How it was run: (§1)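 After 24 hours at 37°C and 5% CO2 in 1536-well plates, cells in DMEM/F12 or RPMI plus 10% FBS received two-drug dose matrices for 72 hours. Viability came from CellTiter-Glo 2.0 luminescence and was scaled as inhibition, anchored at 0 by vehicle wells and at 1 by blank wells. Combination Emax is taken as the second-highest inhibition in the matrix, and Bliss excess as the observed combination effect less EA + EB − EA·EB, with EA and EB the single-agent effects.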

[2] = tested on: EJM (Plasma Cell Myeloma)
How it was run: as §1

[3] = tested on: HCC2998 (Colorectal Carcinoma)
How it was run: as §1

[4] = tested on: DU-145 (Prostate Carcinoma)
How it was run: as §1

[5] = tested on: SKN (Other Solid Carcinomas)
How it was run: as §1

[6] = tested on: MDA-MB-453 (Breast Carcinoma)
How it was run: as §1

SK-N-AS (Neuroblastoma) = tested on: SK-N-AS (Neuroblastoma)
How it was run: as §1

EW-1 (Ewing's Sarcoma) = tested on: EW-1 (Ewing's Sarcoma)
How it was run: as §1

[7] = tested on: HCC1500 (Breast Carcinoma)
How it was run: as §1

[8] = tested on: A4-Fuk (B-Lymphoblastic Leukemia)
How it was run: as §1

COLO-679 (Melanoma) = tested on: COLO-679 (Melanoma)
How it was run: as §1

[9] = tested on: SW872 (Other Solid Carcinomas)
How it was run: as §1

[10] = tested on: Ca-Ski (Cervical Carcinoma)
How it was run: as §1

[11] = tested on: OE33 (Esophageal Adenocarcinoma)
How it was run: as §1

[12] = tested on: Mo-T (Other Blood Carcinomas)
How it was run: as §1

[13] = tested on: KGN (Other Solid Carcinomas)
How it was run: as §1

[14] = tested on: MOG-G-UVW (Low Grade Glioma)
How it was run: as §1

[15] = tested on: ALL-SIL (T-Lymphoblastic Leukemia)
How it was run: as §1

[16] = tested on: SK-LU-1 (Lung Adenocarcinoma)
How it was run: as §1

[17] = tested on: NCI-H522 (Lung Adenocarcinoma)
How it was run: as §1

Row | Compound | Bliss excess [1] | Bliss excess [2] | Bliss excess [3] | Bliss excess [4] | Bliss excess [5] | Bliss excess [6] | Bliss excess (SK-N-AS (Neuroblastoma)) | Bliss excess (EW-1 (Ewing's Sarcoma)) | Bliss excess [7] | Bliss excess [8] | Bliss excess (COLO-679 (Melanoma)) | Bliss excess [9] | Bliss excess [10] | Bliss excess [11] | Bliss excess [12] | Bliss excess [13] | Bliss excess [14] | Bliss excess [15] | Bliss excess [16] | Bliss excess [17]
1 | NC1(C(=O)N[C@@H](CCO)c2ccc(Cl)cc2)CCN(c2ncnc3[nH]ccc23)CC1 [Capivasertib] + C[C@@H]1COCCN1C2=NC(=NC(=C2)C3(CC3)[S@](=N)(=O)C)C4=C5C=CNC5=NC=C4 [AZD6738] (first compound max 10 µM, 7x7, partner max 10 µM) | -0.0658 | 0.0305 | -0.0629 | -0.0128 | -0.0477 | -0.0798 | -0.0469 | 0.0229 | 0.0226 | -0.0841 | -0.128 | -0.0244 | 0.0076 | -0.0225 | 0.0465 | -0.0783 | -0.0348 | -0.0322 | -0.0162 | -0.0483
2 | COc1nnc2ccc(N3CCC(c4ccc(OCCN5CCN(C)C(=O)[C@H]5C)cc4)CC3)nn12 [AZD5153] + Cn1cnc2c(F)c(Nc3ccc(Br)cc3Cl)c(C(=O)NOCCO)cc21 [Selumetinib] (first compound max 1 µM, 7x7, partner max 10 µM) | 0.0659 | 0.0207 | 0.0118 | 0.0192 | -0.0084 | -0.0141 | 0.0307 | 0.041 | 0.0011 | -0.0175 | -0.004 | 0.0635 | 0.0324 | 0.0318 | -0.0656 | -0.002 | -0.0045 | -0.0303 | 0.0022 | -0.042
3 | C=CCn1c(=O)c2cnc(Nc3ccc(N4CCN(C)CC4)cc3)nc2n1-c1cccc(C(C)(C)O)n1 [AZD1775] + C[C@@H]1COCCN1C2=NC(=NC(=C2)C3(CC3)[S@](=N)(=O)C)C4=C5C=CNC5=NC=C4 [AZD6738] (first compound max 1 µM, partner max 10 µM) | -0.0303 | -0.0079 | 0.0923 | 0.02 | -0.0185 | 0.0214 | 0.0189 | 0.0194 | 0.0279 | -0.0203 | -0.0995 | 0.053 | 0.0052 | -0.0081 | -0.0271 | -0.0578 | 0.0202 | 0.044 | -0.0774 | 0.0006
4 | CC(=O)c1c(C)c2cnc(Nc3ccc(N4CCNCC4)cn3)nc2n(C2CCCC2)c1=O [Palbociclib] + Cn1cnc2c(F)c(Nc3ccc(Br)cc3Cl)c(C(=O)NOCCO)cc21 [Selumetinib] (first compound max 10 µM, 7x7, partner max 10 µM) | 0.0823 | -0.0193 | 0.0041 | -0.0326 | 0.0085 | -0.036 | 0.0583 | -0.0082 | -0.0229 | 0.132 | 0.0157 | -0.0263 | -0.0701 | -0.02 | -0.0225 | 0 | 0.0912 | -0.0358 | -0.0422 | -0.0389
5 | Cn1cnc2c(F)c(Nc3ccc(Br)cc3Cl)c(C(=O)NOCCO)cc21 [Selumetinib] + C[C@@H]1COCCN1C2=NC(=NC(=C2)C3(CC3)[S@](=N)(=O)C)C4=C5C=CNC5=NC=C4 [AZD6738] (first compound max 10 µM, 7x7, partner max 10 µM) | 0.0539 | -0.0321 | 0.0464 | -0.0441 | 0.0406 | -0.05 | -0.0048 | 0.0014 | -0.0346 | -0.0481 | -0.0526 | 0.0211 | 0.0396 | -0.018 | -0.0055 | -0.0817 | -0.0662 | 0.0106 | -0.116 | -0.0653
6 | Cc1c2c(nn1C)CSCc1cc(n(C)n1)CSc1cc(c3ccccc3c1)OCCCc1c(C(=O)O)n(C)c3c-2c(Cl)ccc13 [AZD5991] + Cc1cc2ncnn2cc1Nc1ncc2c(n1)n(C1CCOCC1)c(=O)n2C [AZD7648] (first compound max 1 µM, 7x7, partner max 10 µM) | -0.0559 | 0.0164 | -0.0317 | -0.0307 | -0.0386 | -0.0328 | -0.0554 | -0.0108 | -0.0471 | 0.0085 | 0.0019 | -0.0235 | -0.0079 | -0.0304 | -0.08 | -0.0404 | 0.0048 | -0.0253 | -0.062 | -0.0586
7 | Cn1cnc2c(F)c(Nc3ccc(Br)cc3Cl)c(C(=O)NOCCO)cc21 [Selumetinib] + C=CCn1c(=O)c2cnc(Nc3ccc(N4CCN(C)CC4)cc3)nc2n1-c1cccc(C(C)(C)O)n1 [AZD1775] (first compound max 10 µM, partner max 1 µM) | 0.0552 | -0.0146 | -0.0267 | 0.0039 | -0.0294 | -0.0065 | 0.0024 | -0.0347 | -0.0261 | -0.0651 | -0.0285 | 0.0086 | 0.0199 | -0.0911 | -0.0318 | -0.115 | -0.0144 | -0.0934 | 0.0035 | -0.059
8 | Cc1c2c(nn1C)CSCc1cc(n(C)n1)CSc1cc(c3ccccc3c1)OCCCc1c(C(=O)O)n(C)c3c-2c(Cl)ccc13 [AZD5991] + C[C@@H](Nc1cc(F)cc(F)c1)c1cc(C(=O)N(C)C)cc2c(=O)cc(N3CCOCC3)oc12 [AZD8186] (first compound max 1 µM, 7x7, partner max 3 µM) | 0.0684 | -0.0129 | 0.0026 | -0.0204 | -0.0142 | -0.0506 | -0.0122 | -0.0431 | 0.0182 | -0.023 | 0.0127 | -0.0214 | 0.0515 | -0.0003 | -0.0239 | -0.0528 | -0.0451 | -0.0301 | 0.0004 | 0.0196
9 | Cc1c2c(nn1C)CSCc1cc(n(C)n1)CSc1cc(c3ccccc3c1)OCCCc1c(C(=O)O)n(C)c3c-2c(Cl)ccc13 [AZD5991] + C1CN(CCC1(C(=O)N[C@@H](CCO)C2=CC=C(C=C2)Cl)N)C3=NC=NC4=C3C=CN4 [Capivasertib] (first compound max 1 µM, 7x7, partner max 3 µM) | 0.0061 | 0.0504 | -0.0434 | 0.007 | -0.024 | 0.05 | 0.0017 | 0.0232 | 0.0467 | -0.0011 | -0.0179 | 0.0057 | 0.0269 | -0.0328 | -0.0046 | 0.0051 | -0.0173 | -0.0384 | -0.0042 | 0.0415
10 | NC1(C(=O)N[C@@H](CCO)c2ccc(Cl)cc2)CCN(c2ncnc3[nH]ccc23)CC1 [Capivasertib] + Cn1cnc2c(F)c(Nc3ccc(Br)cc3Cl)c(C(=O)NOCCO)cc21 [Selumetinib] (first compound max 10 µM, 7x7, partner max 10 µM) | 0.0107 | 0.08 | -0.0654 | 0.0037 | -0.0264 | 0.0079 | 0.0046 | 0.0819 | 0.0004 | 0.0675 | -0.0912 | 0.0256 | 0.0246 | 0.0301 | 0.0563 | -0.0041 | 0.0622 | 0.0381 | -0.0486 | -0.0098
11 | CCN(CCO)CCCOc1ccc2c(Nc3cc(CC(=O)Nc4cccc(F)c4)[nH]n3)ncnc2c1 [AZD2811] + O=C(c1cc(Cc2n[nH]c(=O)c3ccccc23)ccc1F)N1CCN(C(=O)C2CC2)CC1 [Olaparib] (first compound max 1 µM, 7x7, partner max 10 µM) | 0.0155 | 0.0335 | 0.0257 | -0.0105 | -0.0168 | -0.0253 | 0.0255 | 0.0008 | 0.0231 | -0.0212 | -0.0569 | 0.017 | 0.0242 | -0.0094 | -0.027 | -0.0152 | -0.0088 | -0.0525 | -0.0373 | 0.0123
12 | NC1(C(=O)N[C@@H](CCO)c2ccc(Cl)cc2)CCN(c2ncnc3[nH]ccc23)CC1 [Capivasertib] + CCN(CCO)CCCOc1ccc2c(Nc3cc(CC(=O)Nc4cccc(F)c4)[nH]n3)ncnc2c1 [AZD2811] (first compound max 10 µM, 7x7, partner max 1 µM) | -0.0827 | 0.0798 | -0.0095 | -0.0485 | -0.0219 | 0.002 | 0.0008 | 0.0388 | 0.0228 | -0.0161 | -0.2 | -0.0384 | 0.0121 | -0.0137 | -0.0703 | -0.0623 | 0.0415 | -0.0631 | -0.103 | -0.0817
13 | Cc1c2c(nn1C)CSCc1cc(n(C)n1)CSc1cc(c3ccccc3c1)OCCCc1c(C(=O)O)n(C)c3c-2c(Cl)ccc13 [AZD5991] + CCN(CCO)CCCOc1ccc2c(Nc3cc(CC(=O)Nc4cccc(F)c4)[nH]n3)ncnc2c1 [AZD2811] (first compound max 1 µM, 7x7, partner max 1 µM) | 0.0065 | 0.0504 | 0.0679 | -0.0282 | 0.0261 | 0.125 | 0.0414 | 0.0979 | 0.0466 | 0.0579 | 0.0115 | 0.0237 | 0.0869 | -0.002 | -0.0109 | -0.0067 | 0.0197 | -0.0282 | -0.0306 | 0.111
14 | Cc1c2c(nn1C)CSCc1cc(n(C)n1)CSc1cc(c3ccccc3c1)OCCCc1c(C(=O)O)n(C)c3c-2c(Cl)ccc13 [AZD5991] + CC1(C)CCC(CN2CCN(c3ccc(C(=O)NS(=O)(=O)c4ccc(NCC5CCOCC5)c([N+](=O)[O-])c4)c(Oc4cnc5[nH]ccc5c4)c3)CC2)=C(c2ccc(Cl)cc2)C1 [Venetoclax] (first compound max 1 µM, 7x7, partner max 1 µM) | 0.0016 | 0.0164 | -0.0362 | -0.0185 | -0.0031 | 0.0023 | 0.0857 | 0.103 | 0.256 | -0.03 | -0.0218 | -0.0443 | 0.0006 | -0.0077 | -0.0211 | -0.0308 | 0.0083 | 0.0333 | -0.0368 | -0.0118
15 | NC1(C(=O)N[C@@H](CCO)c2ccc(Cl)cc2)CCN(c2ncnc3[nH]ccc23)CC1 [Capivasertib] + CC(C)n1c(=O)n(C)c2cnc3cc(F)c(-c4ccc(OCCCN5CCCCC5)nc4)cc3c21 [AZD1390] (first compound max 10 µM, 7x7, partner max 0.3 µM) | -0.0103 | -0.0543 | -0.0275 | -0.0598 | -0.055 | -0.0471 | -0.0657 | -0.0622 | -0.0334 | -0.0472 | -0.116 | -0.0562 | -0.0436 | -0.0563 | -0.0451 | -0.047 | -0.0278 | -0.0482 | -0.0747 | -0.0502
